PMC4575386, “Intact cell mass spectrometry as a rapid and specific tool for the differentiation of toxic effects in cell-based ecotoxicological test systems” (Analytical and Bioanalytical Chemistry, 2015)
“And” between values parts separate entries of the source, which are not always exact repeats. Equal entries are not always repeated.

Key:
RTL-W1 cells [1] = assay: Intact cell MALDI-TOF mass spectrometry (IC-MS) profiles after 24 h toxin exposure; type: cell-based, rainbow trout (Oncorhynchus mykiss); details: for number of IC-MS peaks that changed significantly through the toxin exposure: 24 h exposure
Experimental: For IC-MS studies, cells were seeded in T25 cell culture flasks with a total amount of 1.7 × 10^6 cells. […] Toxin exposure was performed according to the viability studies.
After 24 h of toxin exposure, cells were harvested and washed with PBS at 2000×g, 4 °C for 5 min (Eppendorf 5424, Hamburg, Germany) based on the method detailed by Dong et al.. The total number of cells was calculated using an automated cell counter (Cedex XS Analyzer, Roche Innovatis, Bielefeld, Germany). The cell pellets were stored at −20 °C until IC-MS analysis.
According to the calculated cell number, stock solutions with 5 × 10^4 cells per μL as well as further dilutions of 2 × 10^4 and 1 × 10^4 cells per μL were prepared with PBS und stored on ice prior to IC-MS.
Samples and matrix solutions were deposited on the MALDI-TOF MS target layer by layer and successively air dried. First, a thin layer of saturated SA in ethanol was applied to an Opti-TOF 384 well insert (Kratos Analytical, Manchester, UK), followed by 0.5 μL of the sample solution and, finally, covered with 0.5 μL of SA matrix (38 mg/ml in water/ACN/TFA 40/60/0.2 (v/v/v)) which was presented by Munteanu et al.. All sample dilutions were spotted in duplicate.
MALDI-TOF mass spectra were obtained using an Axima Confidence mass spectrometer (Shimadzu Biotech, Manchester, UK) equipped with a 337-nm nitrogen laser. The filter for regulation of the laser firing power was set to 65. To generate representative profiles, a total of 600 laser shots were accumulated and averaged for each sample. Protein mass fingerprints were obtained in the linear, positive mode at a maximal laser repetition rate of 50 Hz within a mass range of 2000 to 20,000 Da.
MALDI-TOF MS data processing was performed using the LaunchpadTM v. 2.9 software (Shimadzu Biotech). A set of 10 peaks that occurred in the majority of spectra and were evenly distributed across the whole mass range were used for internal calibration.
For peak acquisition, an average smoothing method was performed with a smoothing filter width of 50 channels and a baseline filter width of 100 channels. […] For each spotted sample, a list of spectrum peaks was generated and analyzed statistically. The masses of equally treated samples were matched and means and standard deviations of ion abundances calculated. […] For principal component analysis (PCA), relative ion abundances were calculated and data normalized according to the control treatments. […]
The 15 distinctive peaks between m/z 4562 and m/z 15,292 were analyzed for each toxin treatment: The arithmetic mean of the ion abundances was calculated from the six replicates and the direction of deviation from the control treatment was determined and tested for significance (paired two-sample t test) (Table 2).

in vitro = details: rainbow trout (Oncorhynchus mykiss)
Source text: (§1) Subsequently, medium was replaced with exposure medium.

RTL-W1 = test system: RTL-W1; parameters: method as in PMID 24416442; details: RTL-W1, in preparation for micronucleus assays; cited from earlier work
RTL-W1 cells [2] = assay: Viability studies (CellTiter-Blue® and CellTiter-Glo®, not told apart); details: 24 h
Source text: as §1

[3] = Solubility in the culture medium (observation); type: physicochemical; details: high concentrations resulted in precipitation
RTL-W1 cells [4] = details: 24 h exposure, L15/ex medium
Experimental: (§2) In this study, RTL-W1, a liver cell line from rainbow trout (Oncorhynchus mykiss) was used. […] The cells were routinely grown according to the method detailed by Hinger et al. [23] at 20 °C in Leibovitz L15 medium (Biochrom, Berlin, Germany) supplemented with 10 % fetal calf serum (Biochrom), 5 mM L-alanyl-L-glutamin (Biochrom) and 1 % antibiotics (Gibco by Life Technologies). Cells were grown to approximately 90 % confluency before passaging for experimental use.
(§3) Viability studies were performed in 96-well assay plates. Cells were seeded at a density of 20,000 viable cells/well and cultivated for approximately 24 h. Subsequently, medium was replaced with exposure medium. […]
(§4) After 24 h, the cultures were assayed for viability according to the manufacturer’s instructions (Promega). After a final incubation time of 4 h for CellTiter-Blue® Viability Assay, fluorescence was recorded at 540/595 nm on Tecan infinite 200 Pro microtiter plate reader (Tecan, Männedorf, Switzerland). The integration time for luminescence detection (CellTiter-Glo® Luminescent Cell Viability Assays) on Tecan GENios Plus microtiter plate reader (Tecan) was 500 ms per well.
(§5) Statistical analysis and EC50 calculations were performed using GraphPad Prism (Graphpad Software, San Diego, USA). […] EC50 values were calculated with a sigmoid dose–response fit and automatic outlier detection.

RTL-W1 cells [5] = details: 24 h exposure, L15/ex medium; remark: listed apart in the source
Experimental: as §2, §3, §4, §5

RTL-W1 cells [6] = test system: RTL-W1 cells; parameters: method as in earlier work; details: cited from earlier work
RTL-W1 cells [7] = test system: RTL-W1 cells; parameters: method as in earlier work; details: cited from earlier work; remark: listed apart in the source

Structure (SMILES) | number of IC-MS peaks that changed significantly through the toxin exposure (RTL-W1 cells [1]) | viability at 24 h, 150 µM (in vitro) [%] | EC20, neutral red retention assay (RTL-W1) | viability at 24 h, 50 µM (in vitro) [%] | concentrations with significant decrease in viability (RTL-W1 cells [2]; vs control) | solubility in the culture medium [3] | IC-MS profile behavior (RTL-W1 cells [1]; 2 mg/L, lowest concentration) | viability impairment (RTL-W1 cells [2]; 9 mg/L) | EC50 cytotoxicity, CellTiter-Blue®, 24 h (RTL-W1 cells [4]) [µg/mL] | EC50 cytotoxicity, CellTiter-Glo®, 24 h (RTL-W1 cells [5]) [µg/mL] | EC50 (redox activity), literature value (RTL-W1 cells [6]) [µg/mL] | EC50 (membrane integrity), literature value (RTL-W1 cells [7]) [µg/mL]
c1ccc2nc3ccccc3cc2c1 [Acridine, acridine] | seven | ~50 | 40.9 mg/L and 228 μM | – | – | – | – | – | – | – | – | –
O=c1cc(-c2ccccc2)oc2ccc3ccccc3c12 [BNF, β-naphthoflavone] | nine | – | – | ~50 | 10 µM and 20 µM | low solubility | – | – | – | – | – | –
O=S(=O)([O-])[O-].[Cu+2] [Copper sulfate, copper sulfate] | eight | – | – | – | – | – | apoptotic behavior | roughly 50% | 8.23 | 10.08 | 3.69 | 6.56
